Assay results reported in PMC10067098 (Cancer Medicine, 2023).

Test: plasma pharmacokinetics, non‐compartmental analysis
Format: in vivo, human
Conditions: Day 1 in Cycle 1 or Day 1 in Cycle 2; data not shown
Method: In addition, trough plasma concentration (C trough) was measured on Day 7 in Cycle 0, and Day 1 in Cycles 1 and 2.
TEAEs were tabulated by system organ class (SOC) and preferred term (PT). For the other safety and PK endpoints, continuous data were described by mean and standard deviation (SD), median and range, and categorical data were summarized by frequency. The proportionality of the PK parameters, C max and AUC10h, was evaluated using a power model (see Table 4). For the efficacy endpoints, best overall response was tabulated as a frequency table, and the time‐to‐event data such as duration of response, PFS, and OS was evaluated using Kaplan–Meier method. All analyses were conducted using SAS® Version 9.4 (SAS Institute).

## COc1cc2ncnc(Nc3ccc(F)c(Cl)c3)c2cc1OCCCN1CCOCC1 [gefitinib]
  mean C max and AUC among cohorts: no specific pattern was observed
